The values below come from patent EP2077855B1, “THERAPEUTIC USE OF GBA2” (Yildiz, Dr. med., Yildiz, priority 2006, dated 2008).

The target of data set [1] is T1, bile acid glucosyltransferase activity of GBA2 (Homo sapiens, UniProt Q9HCG7).
T1 construct: expressed in transfected cells; host or cells: COS-7
T1 sequence (Q9HCG7 1-927): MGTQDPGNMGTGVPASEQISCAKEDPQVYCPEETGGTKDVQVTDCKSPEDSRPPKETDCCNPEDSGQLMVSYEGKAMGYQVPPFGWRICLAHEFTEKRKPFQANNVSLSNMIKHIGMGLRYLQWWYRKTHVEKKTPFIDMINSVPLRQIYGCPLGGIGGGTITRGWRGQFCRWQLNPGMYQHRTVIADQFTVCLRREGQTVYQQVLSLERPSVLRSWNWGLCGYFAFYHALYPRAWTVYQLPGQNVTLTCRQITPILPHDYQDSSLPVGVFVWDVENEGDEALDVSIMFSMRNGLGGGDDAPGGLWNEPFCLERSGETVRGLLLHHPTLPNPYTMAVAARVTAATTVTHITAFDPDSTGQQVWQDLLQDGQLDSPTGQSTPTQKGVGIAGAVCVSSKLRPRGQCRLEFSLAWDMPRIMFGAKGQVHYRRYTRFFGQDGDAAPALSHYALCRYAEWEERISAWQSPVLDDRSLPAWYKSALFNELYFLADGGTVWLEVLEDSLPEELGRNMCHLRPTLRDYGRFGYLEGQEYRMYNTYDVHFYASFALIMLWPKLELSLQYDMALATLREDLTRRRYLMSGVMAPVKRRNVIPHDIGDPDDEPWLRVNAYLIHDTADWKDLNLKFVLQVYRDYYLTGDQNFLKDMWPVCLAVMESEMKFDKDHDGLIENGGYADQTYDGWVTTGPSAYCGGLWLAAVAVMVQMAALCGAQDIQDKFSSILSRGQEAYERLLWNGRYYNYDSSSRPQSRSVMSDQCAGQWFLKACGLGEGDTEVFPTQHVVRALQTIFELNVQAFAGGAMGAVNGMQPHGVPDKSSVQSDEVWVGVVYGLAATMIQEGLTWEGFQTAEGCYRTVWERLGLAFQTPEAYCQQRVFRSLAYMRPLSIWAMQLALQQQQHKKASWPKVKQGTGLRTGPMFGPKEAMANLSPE
Kind of data set: Bile acid glucosyltransferase activity, human enzyme expressed in COS-7-cells. The class given is biochemical. Particulars: read-out: Transferase activity % of control.

The target in data set [2] is T2, bile acid glucosyltransferase activity of GBA2 (Mus musculus, UniProt Q69ZF3).
T2 sequence (Q69ZF3 1-918): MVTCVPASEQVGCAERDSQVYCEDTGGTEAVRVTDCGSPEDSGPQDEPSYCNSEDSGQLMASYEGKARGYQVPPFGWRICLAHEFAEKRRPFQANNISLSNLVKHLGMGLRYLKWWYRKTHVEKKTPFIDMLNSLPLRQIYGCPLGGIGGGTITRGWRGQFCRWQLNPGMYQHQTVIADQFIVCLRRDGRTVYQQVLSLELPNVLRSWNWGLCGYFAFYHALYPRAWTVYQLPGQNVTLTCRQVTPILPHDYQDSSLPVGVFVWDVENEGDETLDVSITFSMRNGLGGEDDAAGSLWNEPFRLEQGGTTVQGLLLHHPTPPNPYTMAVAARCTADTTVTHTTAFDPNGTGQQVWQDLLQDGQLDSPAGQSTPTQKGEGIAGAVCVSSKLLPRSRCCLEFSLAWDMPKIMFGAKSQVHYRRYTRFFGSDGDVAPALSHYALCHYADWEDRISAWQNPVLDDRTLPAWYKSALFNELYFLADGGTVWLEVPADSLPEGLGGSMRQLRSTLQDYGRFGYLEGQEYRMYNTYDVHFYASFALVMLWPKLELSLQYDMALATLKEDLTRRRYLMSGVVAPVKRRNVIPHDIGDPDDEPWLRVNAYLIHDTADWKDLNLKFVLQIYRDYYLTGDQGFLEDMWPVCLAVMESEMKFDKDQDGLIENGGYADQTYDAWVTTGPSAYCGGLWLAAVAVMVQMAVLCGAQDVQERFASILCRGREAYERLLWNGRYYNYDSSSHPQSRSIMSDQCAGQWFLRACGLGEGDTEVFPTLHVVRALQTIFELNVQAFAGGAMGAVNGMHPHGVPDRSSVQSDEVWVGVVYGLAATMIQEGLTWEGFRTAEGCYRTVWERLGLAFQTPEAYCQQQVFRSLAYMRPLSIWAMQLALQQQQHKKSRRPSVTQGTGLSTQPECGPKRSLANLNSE
Kind of data set: Bile acid glucosyltransferase activity, liver microsomal enzyme from wild type mouse. Particulars: read-out: Transferase activity % of control. The class given is biochemical. Details: from tissue; host or cells: mouse liver microsomes (wild type).

In data set [3] the target is T3, bile acid β-glucosidase activity of GBA2 (Mus musculus, UniProt Q69ZF3).
T3 construct: expressed in transfected cells; host or cells: COS-7
T3 sequence (Q69ZF3 1-918): T2 sequence (Q69ZF3 1-918)
Briefly: Bile acid β-glucosidase activity, murine enzyme expressed in COS-7-cells. The format is biochemical. Particulars: read-out: β-Glucosidase activity % of control.

Data set [4] addresses T2, bile acid glucosyltransferase activity of GBA2. Kind of data set: Bile acid glucosyltransferase activity, murine enzyme expressed in COS-7-cells. The class given is biochemical. The arrangement: expressed in transfected cells; host or cells: COS-7. The settings on record: read-out: Transferase activity % of control.
The test system of data set [5] is liver microsomal β-glucosidase activity from GBA2 (-/-) mice. Kind of data set: Liver microsomal β-glucosidase activity from GBA2 (-/-) mice. The class given is biochemical. The settings on record: liver microsomes from GBA2 (-/-) mice. A general note: Liver microsomes are vesicles of endoplasmic reticulum, rich in cytochrome P450 enzymes.
In data set [6] the target is T4, bile acid β-glucosidase activity of GBA2 (Homo sapiens, UniProt Q9HCG7).
T4 construct: expressed in transfected cells; host or cells: COS-7
T4 sequence (Q9HCG7 1-927): T1 sequence (Q9HCG7 1-927)
Briefly: Bile acid β-glucosidase activity, human enzyme expressed in COS-7-cells. The class given is biochemical. Particulars: read-out: β-Glucosidase activity % of control.

Data set [7] concerns bile acid β-glucosidase activity of GBA2. Kind of data set: Bile acid β-glucosidase activity, liver microsomal enzyme from wild type mouse. The format is biochemical.
The next data set deals with mice. The settings on record: administration to mice; cited from earlier work.
The next data set relates to rodents. Particulars: administered to rodents; cited from earlier work.
The subject of the next data set is GBA2. Briefly: Summary statement on the screening for GBA2 antagonists. The format is biochemical. The settings on record: summary of Example 22.

`O[C@H]1[C@H](O)[C@@H](O)[C@@H]2O[C@@H]2[C@@H]1O` (racemic) [Conduritol B epoxide, reference compound]: the remaining activity at 2000 µM in data set [1] (2000 µM) stood at 64.6%; in data set [2] (2000 µM) it was 60%; in [4] (2000 µM), 48.6%. The remaining activity at 1000 µM in data set [3] (1000 µM) amounted to 44.9%; in data set [6] (1000 µM, human enzyme expressed in COS-7-cells), 55.7%. Besides, the figures for the “β-Glucosidase activity % of control” value in [5] (20 µM) and in data set [7] (50 µM) were 58.9% and 46.9%, respectively.
With `OC[C@H]1NC[C@H](O)[C@@H](O)[C@@H]1O` [1-Deoxynojirimycin], in the data set with mice, the “male infertility and globozoospermia” value is “causes male infertility and globozoospermia”.
As for `CCCCN1C[C@H](O)[C@@H](O)[C@H](O)[C@H]1CO` [Butyl-dNM, N-butyldeoxynojirimycin], the globozoospermia result in the data set on rodents is “causes globozoospermia”.
Regarding `CCCCCCCCCCCCN1C[C@H](O)[C@@H](O)[C@H](O)[C@H]1CO` [Dodecyl-dNM, dodecyldeoxynojirimycin], the remaining activity at 0.002 µM in data set [1] (0.002 µM) stood at 50.7%. In addition, in the data set with GBA2, the “inhibitory effect on β-glucosidase and transferase activity (especially on GBA2)” value is “considerable inhibitory effect”. The remaining activity at 0.0006 µM in data set [2] (0.0006 µM) stood at 49.4%. In [3] (0.0001 µM), the remaining activity at 0.0001 µM stood at 59.5%. Further, in data set [4] (0.001 µM), the remaining activity at 0.001 µM was found to be 47.3%. In addition, the “β-Glucosidase activity % of control” value is listed as 57.8% in data set [5] (0.2 µM) and 51.9% in data set [7] (0.001 µM). In [6], the remaining activity at 0.0002 µM was 49.3%.
